Reference: patent publication US12410160B2 (Gilead Sciences, Inc., priority 2021, dated 2025)

Experiments:
human KHK-A = human KHK-A (Homo sapiens (Human), UniProt P50053); assay: KHK Biochemical Assay (IC50), ADP-Glo, KHK-A; conditions: average of at least two separate assays
Procedure: (§1) The His-tagged fusion protein was expressed using BL21 (DE3) with IPTG induction and purified using Ni-NTA column followed by dialysis into final buffer containing 25 mM Tris-HCl pH 8.0, 250 mM NaCl.
(§2) KHK Biochemical Assay (IC50)
(§3) Compounds were tested for KHK enzyme inhibition in a high-throughput 384-well assay format using the ADP-Glo assay (Promega) in buffer consisting of 50 mM Hepes (pH 7.4), 140 mM KCl, 5 mM MgCl2 and 0.01% Triton-X. 0.2 nM. […] Compounds were serially diluted (1:3) in DMSO.
(§4) The compounds were pre-incubated with 5 μL of 2× final enzyme concentration for 30 minutes before adding 5 μL of 2× final concentration of ATP and fructose. The plates were incubated at room temperature for 4 hours before adding ADP-Glo reagent to quench the enzyme reaction, followed by incubation at room temperature for 1 hour. The ADP-Glo detection reagent was then added to the plates and luminescence was measured on the Envision plate reader after 1 hour.

human KHK-C = human KHK-C (Homo sapiens (Human), UniProt P50053); assay: KHK Biochemical Assay (IC50), ADP-Glo, KHK-C; conditions: average of at least two separate assays
Chain of human KHK-C (P50053 whole entry): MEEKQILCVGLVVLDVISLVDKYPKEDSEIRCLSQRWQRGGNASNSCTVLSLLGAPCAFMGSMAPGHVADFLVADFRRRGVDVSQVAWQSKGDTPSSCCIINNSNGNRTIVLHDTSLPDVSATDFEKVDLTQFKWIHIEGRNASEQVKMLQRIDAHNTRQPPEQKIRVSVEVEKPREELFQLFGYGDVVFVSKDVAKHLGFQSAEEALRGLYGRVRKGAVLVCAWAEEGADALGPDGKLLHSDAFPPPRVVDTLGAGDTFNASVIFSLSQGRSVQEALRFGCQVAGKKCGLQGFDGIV
Procedure: as §1, §2, §3, §4

Chain of human KHK-A (P50053 other isoform, or with tags, fused parts or gaps): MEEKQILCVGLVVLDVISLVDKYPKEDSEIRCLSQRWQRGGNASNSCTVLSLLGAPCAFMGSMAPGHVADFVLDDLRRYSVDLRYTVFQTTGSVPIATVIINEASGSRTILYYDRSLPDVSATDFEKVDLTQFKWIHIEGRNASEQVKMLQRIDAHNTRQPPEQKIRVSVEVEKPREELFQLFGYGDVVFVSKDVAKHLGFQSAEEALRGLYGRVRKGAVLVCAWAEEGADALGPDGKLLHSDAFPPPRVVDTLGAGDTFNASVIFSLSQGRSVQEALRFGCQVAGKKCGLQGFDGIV

## NC1(c2ccc(-c3nc(N4CC[C@H]4C(F)F)nc4c3CCC4(F)F)cc2)CS(=O)(=O)C1 (single isomer, unassigned) [Example 801]
Human KHK-A; ADP-Glo
  IC50: > 100 nM
Human KHK-C; ADP-Glo
  IC50: 52.2 nM

## C[C@H]1CCN1c1nc2c(c(-c3ccc(C4(NC(=O)OC(C)(C)C)CC4)cc3)n1)CCC2 [Example 294, (S)-tert-butyl (1-(4-(2-(2-methylazetidin-1-yl)-6,7-dihydro-5H-cyclopenta[d]pyrimidin-4-yl)phenyl)cyclopropyl)carbamate]
Human KHK-A; ADP-Glo
  IC50: 3890 nM
Human KHK-C; ADP-Glo
  IC50: 3400 nM

## C[C@H]1CCN1c1nc2c(c(-c3ccc4c(c3)C(=O)NS4(=O)=O)n1)CCC2 [Example 239, (S)-5-(2-(2-methylazetidin-1-yl)-6,7-dihydro-5H-cyclopenta[d]pyrimidin-4-yl)benzo[d]isothiazol-3(2H)-one 1,1-dioxide]
Human KHK-A; ADP-Glo
  IC50: 117 nM
Human KHK-C; ADP-Glo
  IC50: 70.6 nM

## C[C@H]1CCN1c1nc2c(c(-c3cccc(C(=O)Nc4cn[nH]c4)c3)n1)CCC2 [Example 64, (S)-3-(2-(2-methylazetidin-1-yl)-6,7-dihydro-5H-cyclopenta[d]pyrimidin-4-yl)-N-(1H-pyrazol-4-yl)benzamide]
Human KHK-A; ADP-Glo
  IC50: 52.7 nM
Human KHK-C; ADP-Glo
  IC50: 107 nM

## CNS(=O)(=O)c1cccc(-c2nc(N3CC[C@@H]3C)nc3c2CCC3)c1 [Example 214, N-methyl-3-[2-[(2S)-2-methylazetidin-1-yl]-6,7-dihydro-5H-cyclopenta[d]pyrimidin-4-yl]benzenesulfonamide]
Human KHK-A; ADP-Glo
  IC50: 37.5 nM
Human KHK-C; ADP-Glo
  IC50: 37.7 nM

## C[C@H]1CCN1c1nc2c(c(-c3ccc4c(c3)CC(C(F)(F)F)C4NS(C)(=O)=O)n1)CCC2 (stereo partly drawn) [Example 893, N-(5-(2-((S)-2-methylazetidin-1-yl)-6,7-dihydro-5H-cyclopenta[d]pyrimidin-4-yl)-2-(trifluoromethyl)-2,3-dihydro-1H-inden-1-yl)methanesulfonamide]
Human KHK-A; ADP-Glo
  IC50: 1780 nM
Human KHK-C; ADP-Glo
  IC50: 733 nM

## C[C@H]1[C@H](F)CN1c1nc(-c2ccc3c(c2)S(=O)(=O)C[C@@H]3NS(C)(=O)=O)c2c(n1)C(F)(F)CC2 (single isomer, unassigned) [Example 679]
Human KHK-A
  IC50: 2.3 nM
Human KHK-C
  IC50: 0.1 nM

## C[C@@H]1N(c2nc(-c3ccc4c(c3)OC[C@@H]4NS(C)(=O)=O)c3c(n2)C(F)(F)CC3)C[C@@]1(C)O [Example 575, N—((R)-6-(7,7-difluoro-2-((2S,3R)-3-hydroxy-2,3-dimethylazetidin-1-yl)-6,7-dihydro-5H-cyclopenta[d]pyrimidin-4-yl)-2,3-dihydrobenzofuran-3-yl)methanesulfonamide]
Human KHK-A
  IC50: 52.4 nM
Human KHK-C
  IC50: 5.9 nM

## C[C@H]1CCN1c1nc(-c2ccccc2)c2c(n1)C1(CC2)CC1 [Example 338, 2-[(2S)-2-methylazetidin-1-yl]-4-phenyl-spiro[5,6-dihydrocyclopenta[d]pyrimidine-7,1′-cyclopropane]]
Human KHK-A; ADP-Glo
  IC50: > 50000 nM
Human KHK-C; ADP-Glo
  IC50: > 50000 nM

## C[C@H]1CCN1c1nc2c(c(-c3ccc(C(N)=O)c(SCc4ccccc4)c3)n1)CCC2 [Example 842, (S)-2-(benzylthio)-4-(2-(2-methylazetidin-1-yl)-6,7-dihydro-5H-cyclopenta[d]pyrimidin-4-yl)benzamide]
Human KHK-A; ADP-Glo
  IC50: 304 nM
Human KHK-C; ADP-Glo
  IC50: 576 nM

## C[C@H]1CCN1c1nc(-c2ccccc2)c2c(cnn2C)n1 [Example 11, (S)-1-methyl-5-(2-methylazetidin-1-yl)-7-phenyl-1H-pyrazolo[4,3-d]pyrimidine]
Human KHK-A; ADP-Glo
  IC50: 453 nM
Human KHK-C; ADP-Glo
  IC50: 408 nM

## C[C@@H]1Oc2cc(-c3nc(N4CC[C@@H]4C)nc4c3CCC4)ccc2[C@H]1NS(C)(=O)=O [Example 886, N-((2s,3r)-2-methyl-6-(2-((S)-2-methylazetidin-1-yl)-6,7-dihydro-5H-cyclopenta[d]pyrimidin-4-yl)-2,3-dihydrobenzofuran-3-yl)methanesulfonamide]
Human KHK-A; ADP-Glo
  IC50: 27.1 nM
Human KHK-C; ADP-Glo
  IC50: 13.2 nM

## C[C@H]1[C@H](O)CN1c1nc(-c2ccc(C(F)F)c(S(C)(=N)=O)c2)c2c(n1)C(F)(F)CC2 (stereo partly drawn) [Example 721, (5-(7,7-difluoro-2-((2S,3R)-3-hydroxy-2-methylazetidin-1-yl)-6,7-dihydro-5H-cyclopenta[d]pyrimidin-4-yl)-2-(difluoromethyl)phenyl)(imino)(methyl)-λ^6-sulfanone]
Human KHK-A
  IC50: 28.3 nM
Human KHK-C
  IC50: 23.2 nM

## COc1ccc(-c2nc(N3CC[C@@H]3C)nc3c2CCC3)cc1S(=N)(=O)c1ccc(C#N)cc1 (stereo partly drawn) [Example 851, 4-(2-methoxy-5-(2-((S)-2-methylazetidin-1-yl)-6,7-dihydro-5H-cyclopenta[d]pyrimidin-4-yl)phenylsulfonimidoyl)benzonitrile]
Human KHK-A; ADP-Glo
  IC50: 10.1 nM
Human KHK-C; ADP-Glo
  IC50: 17.8 nM

## C[C@H]1CCN1c1nc2c(c(-c3cncc(S(N)(=O)=O)c3)n1)CCC2 [Example 205, 5-[2-[(2S)-2-methylazetidin-1-yl]-6,7-dihydro-5H-cyclopenta[d]pyrimidin-4-yl]pyridine-3-sulfonamide]
Human KHK-A; ADP-Glo
  IC50: 79.9 nM
Human KHK-C; ADP-Glo
  IC50: 108 nM

## C[C@H]1CCCN1c1nc(-c2ccc(C3(N)COC3)cc2)c2c(n1)C(F)(F)CC2 [Example 570, (S)-3-(4-(7,7-difluoro-2-(2-methylpyrrolidin-1-yl)-6,7-dihydro-5H-cyclopenta[d]pyrimidin-4-yl)phenyl)oxetan-3-amine]
Human KHK-A
  IC50: 25 nM
Human KHK-C
  IC50: 10.9 nM

## C[C@H]1CCN1c1nc2c(c(-c3ccc(CN4CCOCC4)cc3)n1)CCC2 [Example 367, 4-[[4-[2-[(2S)-2-methylazetidin-1-yl]-6,7-dihydro-5H-cyclopenta[d]pyrimidin-4-yl]phenyl]methyl]morpholine]
Human KHK-A; ADP-Glo
  IC50: 224 nM
Human KHK-C; ADP-Glo
  IC50: 176 nM

## C[C@H]1CCN1c1nc2c(c(-c3ccccc3)n1)CCOC2 [Example 10, (S)-2-(2-methylazetidin-1-yl)-4-phenyl-5,8-dihydro-6H-pyrano[3,4-d]pyrimidine]
Human KHK-A; ADP-Glo
  IC50: 1150 nM
Human KHK-C; ADP-Glo
  IC50: 1140 nM

## C[C@@H](O)C(=O)NCc1cccc(-c2nc(N3CC[C@@H]3C)nc3c2CCC3)c1 [Example 229, (2R)-2-hydroxy-N-[[3-[2-[(2S)-2-methylazetidin-1-yl]-6,7-dihydro-5H-cyclopenta[d]pyrimidin-4-yl]phenyl]methyl]propanamide]
Human KHK-A; ADP-Glo
  IC50: 108 nM
Human KHK-C; ADP-Glo
  IC50: 95.7 nM

## Cc1cc(-c2nc(N3CC[C@@H]3C)nc3c2CCC3)on1 [Example 326, 3-methyl-5-[2-[(2S)-2-methylazetidin-1-yl]-6,7-dihydro-5H-cyclopenta[d]pyrimidin-4-yl]isoxazole]
Human KHK-A; ADP-Glo
  IC50: 231 nM
Human KHK-C; ADP-Glo
  IC50: 228 nM

## C[C@H]1[C@H](O)CN1c1nc(-c2ccc(C3(N)CCOCC3)cc2)c2c(n1)C(F)(F)CC2 [Example 838, (2S,3R)-1-(4-(4-(4-aminotetrahydro-2H-pyran-4-yl)phenyl)-7,7-difluoro-6,7-dihydro-5H-cyclopenta[d]pyrimidin-2-yl)-2-methylazetidin-3-ol]
Human KHK-A; ADP-Glo
  IC50: 4.8 nM
Human KHK-C; ADP-Glo
  IC50: 4.1 nM

## C[C@H]1CCN1c1nc2c(c(-c3ccc(N4CCOCC4)nc3)n1)CCC2 [Example 291, (S)-4-(5-(2-(2-methylazetidin-1-yl)-6,7-dihydro-5H-cyclopenta[d]pyrimidin-4-yl)pyridin-2-yl)morpholine]
Human KHK-A; ADP-Glo
  IC50: 141 nM
Human KHK-C; ADP-Glo
  IC50: 98 nM

## C[C@H]1CCN1c1nc2c(c(-c3cccc(S(=N)(N)=O)c3)n1)CCC2 (stereo partly drawn) [Example 873, 3-(2-((S)-2-methylazetidin-1-yl)-6,7-dihydro-5H-cyclopenta[d]pyrimidin-4-yl)benzenesulfonimidamide]
Human KHK-A; ADP-Glo
  IC50: 24.1 nM
Human KHK-C; ADP-Glo
  IC50: 23.6 nM

## C[C@H]1[C@H](O)CN1c1nc(-c2ccc3c(c2)CC(C)(C)C3NS(C)(=O)=O)c2c(n1)C(F)(F)CC2 (stereo partly drawn) [Example 816, N-[5-[7,7-difluoro-2-[(2S,3R)-3-hydroxy-2-methyl-azetidin-1-yl]-5,6-dihydrocyclopenta[d]pyrimidin-4-yl]-2,2-dimethyl-indan-1-yl]methanesulfonamide]
Human KHK-C; ADP-Glo
  IC50: 23.4 nM

## C[C@H]1[C@H](O)CN1c1nc(-c2ccc3c(c2)C(F)(F)C[C@H]3NS(C)(=O)=O)c2c(n1)C(F)(F)CC2 (single isomer, unassigned) [Example 635]
Human KHK-C
  IC50: 2.9 nM

## C[C@H]1[C@H](O)CN1c1nc(-c2ccc3c(c2)S(=N)(=O)CCO3)c2c(n1)C(F)(F)CC2 (stereo partly drawn) [Example 818, (2S,3R)-1-[7,7-difluoro-4-(4-imino-4-oxo-2,3-dihydro-1,4λ^6-benzoxathiin-6-yl)-5,6-dihydrocyclopenta[d]pyrimidin-2-yl]-2-methyl-azetidin-3-ol]
Human KHK-C; ADP-Glo
  IC50: 2.5 nM

## NC1(c2ccc(-c3nc(N4C[C@@H](O)[C@@H]4CF)nc4c3CCC4(F)F)cc2)COC1 [Example 677, (2R,3R)-1-[4-[4-(3-aminooxetan-3-yl)phenyl]-7,7-difluoro-5,6-dihydroeyelopenta[d]pyrimidin-2-yl]-2-(fluoromethyl)azetidin-3-ol]
Human KHK-C
  IC50: 4.8 nM

## COc1c(F)cc(-c2nc(N3C[C@@H](O)[C@@H]3C)nc3c2CCC3(F)F)cc1[S@](C)(=N)=O (single isomer, unassigned) [Example 537]
Human KHK-C
  IC50: 21.4 nM

## C[C@@H]1N(c2nc(-c3ccc4c(c3)S(=O)(=O)C[C@@H]4NS(C)(=O)=O)c3c(n2)C(F)(F)CC3)CC1(F)F (single isomer, unassigned) [Example 681]
Human KHK-C
  IC50: 0.5 nM

## CS(=O)(=O)N[C@H]1COc2cc(-c3nc(N4C[C@@H](O)[C@@H]4CF)nc4c3CCC4(F)F)ccc21 [Example 484, N-((R)-6-(7,7-difluoro-2-((2R,3R)-2-(fluoromethyl)-3-hydroxyazetidin-1-yl)-6,7-dihydro-5H-cyclopenta[d]pyrimidin-4-yl)-2,3-dihydrobenzofuran-3-yl)methanesulfonamide]
Human KHK-C
  IC50: 1.2 nM
